Our source for the MIC values is US10314823B2, “Substituted 1,2-dihydro-3H-pyrrolo[1,2-c]imidazol-3-one antibacterial compounds” (IDORSIA PHARMACEUTICALS LTD, priority 2015, dated 2019).

Values after ≈ are worked out from the molar mass of the structure shown.

Holding throughout (assay): Bacterial growth minimal inhibitory concentration (CLSI broth microdilution)
Type in all cases: cell-based
In general terms: Broth dilution looks for growth in wells or tubes with falling amounts of substance.

The test system of one test is P. aeruginosa ATCC27853. To be noted: Pseudomonas aeruginosa, ATCC27853; quinolone-sensitive strain; cation-adjusted Mueller-Hinton Broth. Summed up: (§1)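 Growth inhibition is assessed by broth microdilution in cation-adjusted Mueller-Hinton broth, with MIC values given in mg/L.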
The test system of the next test is K. pneumoniae A-651. To be noted: Klebsiella pneumoniae, A651; multiply resistant strain (in particular quinolone-resistant); cation-adjusted Mueller-Hinton Broth. Summed up:
as §1

The next test concerns E. coli ATCC25922. The following applies: Escherichia coli, ATCC25922; quinolone-sensitive strain; cation-adjusted Mueller-Hinton Broth. The procedure, abridged: as §1

For `[2H]CN1CC(C#CC#Cc2cc3n(c2)C(=O)N(CC[C@](C)(C(=O)NO)S(C)(=O)=O)C3)C1` [Example 60, (2R)—N-hydroxy-2-methyl-4-(6-((1-(methyl-d)azetidin-3-yl)buta-1,3-diyn-1-yl)-3-oxo-1H-pyrrolo[1,2-c]imidazol-2(3H)-yl)-2-(methylsulfonyl)butanamide], the MIC against P. aeruginosa ATCC27853, against K. pneumoniae A-651 and against E. coli ATCC25922 was 0.5 µg/mL (≈ 1.15 µM) each time.
Regarding `C[C@@](CCN1Cc2cc(C#CC#CC3CN(CCF)C3)cn2C1=O)(C(=O)NO)S(C)(=O)=O` [Example 61, (2R)-4-(6-((1-(2-fluoroethyl)azetidin-3-yl)buta-1,3-diyn-1-yl)-3-oxo-1H-pyrrolo[1,2-c]imidazol-2(3H)-yl)-N-hydroxy-2-methyl-2-(methylsulfonyl)butanamide], the MIC (usually the lowest concentration found to suppress growth) in the test on P. aeruginosa ATCC27853 came to 0.5 µg/mL (≈ 1.08 µM); with K. pneumoniae A-651 it was 0.5 µg/mL (≈ 1.08 µM); against E. coli ATCC25922, 0.063 µg/mL (≈ 0.136 µM).
On to `C[C@@](CCN1Cc2cc(C#CC#CC3CN(C4CCC4)C3)cn2C1=O)(C(=O)NO)S(C)(=O)=O` [Example 62, (2R)-4-(6-((1-cyclobutylazetidin-3-yl)buta-1,3-diyn-1-yl)-3-oxo-1H-pyrrolo[1,2-c]imidazol-2(3H)-yl)-N-hydroxy-2-methyl-2-(methylsulfonyl)butanamide], for which the minimal inhibitory concentration (MIC) came to 1 µg/mL (≈ 2.12 µM) with P. aeruginosa ATCC27853, 0.125 µg/mL (≈ 0.265 µM) against K. pneumoniae A-651 and 0.125 µg/mL (≈ 0.265 µM) against E. coli ATCC25922.
Turning to `C[C@@](CCN1Cc2cc(C#CC#CC3CN(C4CS(=O)(=O)C4)C3)cn2C1=O)(C(=O)NO)S(C)(=O)=O` [Example 63, (2R)-4-(6-((1-(1,1-dioxidothietan-3-yl)azetidin-3-yl)buta-1,3-diyn-1-yl)-3-oxo-1H-pyrrolo[1,2-c]imidazol-2(3H)-yl)-N-hydroxy-2-methyl-2-(methylsulfonyl)butanamide], the MIC was 4 µg/mL (≈ 7.65 µM) against P. aeruginosa ATCC27853, 2 µg/mL (≈ 3.83 µM) against K. pneumoniae A-651 and 1 µg/mL (≈ 1.91 µM) against E. coli ATCC25922.
Taken in the same sequence, the figures for `C[C@@](CCN1Cc2cc(C#CC#CC3CN(CCCO)C3)cn2C1=O)(C(=O)NO)S(C)(=O)=O` [Example 64, (2R)—N-hydroxy-4-(6-((1-(3-hydroxypropyl)azetidin-3-yl)buta-1,3-diyn-1-yl)-3-oxo-1H-pyrrolo[1,2-c]imidazol-2(3H)-yl)-2-methyl-2-(methylsulfonyl)butanamide] were 0.5 µg/mL (≈ 1.05 µM), 1 µg/mL (≈ 2.1 µM) and 0.25 µg/mL (≈ 0.525 µM).
Taken in the same sequence, the figures for `CN1CC(C)(C#CC#Cc2cc3n(c2)C(=O)N(CC[C@](C)(C(=O)NO)S(C)(=O)=O)C3)C1` [Example 65, (2R)-4-(6-((1,3-dimethylazetidin-3-yl)buta-1,3-diyn-1-yl)-3-oxo-1H-pyrrolo[1,2-c]imidazol-2(3H)-yl)-N-hydroxy-2-methyl-2-(methylsulfonyl)butanamide] were 1 µg/mL (≈ 2.24 µM), 1 µg/mL (≈ 2.24 µM) and 1 µg/mL (≈ 2.24 µM).
As to `C[C@@](CCN1Cc2cc(C#CC#CC3(F)CN(CCO)C3)cn2C1=O)(C(=O)NO)S(C)(=O)=O` [Example 66, (2R)-4-(6-((3-fluoro-1-(2-hydroxyethyl)azetidin-3-yl)buta-1,3-diyn-1-yl)-3-oxo-1H-pyrrolo[1,2-c]imidazol-2(3H)-yl)-N-hydroxy-2-methyl-2-(methylsulfonyl)butanamide], the values for the MIC in the test with P. aeruginosa ATCC27853, in the test on K. pneumoniae A-651 and in the test with E. coli ATCC25922 were 2 µg/mL (≈ 4.16 µM), 1 µg/mL (≈ 2.08 µM) and 0.5 µg/mL (≈ 1.04 µM), respectively.
The matching figures for `C[C@@](CCN1Cc2cc(C#CC#CC3CN(CC(CO)CO)C3)cn2C1=O)(C(=O)NO)S(C)(=O)=O` [Example 67, (2R)—N-hydroxy-4-(6-((1-(3-hydroxy-2-(hydroxymethyl)propyl)azetidin-3-yl)buta-1,3-diyn-1-yl)-3-oxo-1H-pyrrolo[1,2-c]imidazol-2(3H)-yl)-2-methyl-2-(methylsulfonyl)butanamide]: 1 µg/mL (≈ 1.97 µM), 2 µg/mL (≈ 3.95 µM) and 2 µg/mL (≈ 3.95 µM).
The matching figures for `C[C@@](CCN1Cc2cc(C#CC#CC3CN(CC(F)F)C3)cn2C1=O)(C(=O)NO)S(C)(=O)=O` [Example 68, (2R)-4-(6-((1-(2,2-difluoroethyl)azetidin-3-yl)buta-1,3-diyn-1-yl)-3-oxo-1H-pyrrolo[1,2-c]imidazol-2(3H)-yl)-N-hydroxy-2-methyl-2-(methylsulfonyl)butanamide]: 1 µg/mL (≈ 2.07 µM), 0.25 µg/mL (≈ 0.518 µM) and 0.063 µg/mL (≈ 0.131 µM).
With `C[C@@](CCN1Cc2cc(C#CC#CC3CN(C4CC(O)C4)C3)cn2C1=O)(C(=O)NO)S(C)(=O)=O` (stereo partly drawn) [Example 69, (2R)—N-hydroxy-4-(6-((1-(3-hydroxycyclobutyl)azetidin-3-yl)buta-1,3-diyn-1-yl)-3-oxo-1H-pyrrolo[1,2-c]imidazol-2(3H)-yl)-2-methyl-2-(methylsulfonyl)butanamide], the MIC in the test with P. aeruginosa ATCC27853 amounted to 0.5 µg/mL (≈ 1.02 µM); against K. pneumoniae A-651, 0.5 µg/mL (≈ 1.02 µM); in the test on E. coli ATCC25922 it was 0.25 µg/mL (≈ 0.512 µM).
With `C[C@@](CCN1Cc2cc(C#CC#CC3CN(C4CCCCC4)C3)cn2C1=O)(C(=O)NO)S(C)(=O)=O` [Example 70, (2R)-4-(6-((1-cyclohexylazetidin-3-yl)buta-1,3-diyn-1-yl)-3-oxo-1H-pyrrolo[1,2-c]imidazol-2(3H)-yl)-N-hydroxy-2-methyl-2-(methylsulfonyl)butanamide], the MIC with P. aeruginosa ATCC27853 was 0.5 µg/mL (≈ 0.999 µM); against K. pneumoniae A-651 it was 0.25 µg/mL (≈ 0.499 µM); with E. coli ATCC25922 it was 0.125 µg/mL (≈ 0.25 µM).
Taken in the same sequence, the figures for `C[C@@](CCN1Cc2cc(C#CC#CC3CN(C4CCCC4)C3)cn2C1=O)(C(=O)NO)S(C)(=O)=O` [Example 73, (2R)-4-(6-((1-cyclopentylazetidin-3-yl)buta-1,3-diyn-1-yl)-3-oxo-1H-pyrrolo[1,2-c]imidazol-2(3H)-yl)-N-hydroxy-2-methyl-2-(methylsulfonyl)butanamide] were 1 µg/mL (≈ 2.06 µM), 0.25 µg/mL (≈ 0.514 µM) and 0.5 µg/mL (≈ 1.03 µM).
The matching figures for `C[C@@](CCN1Cc2cc(C#CC#CC3CN(C4CCOCC4)C3)cn2C1=O)(C(=O)NO)S(C)(=O)=O` [Example 74, (2R)—N-hydroxy-2-methyl-2-(methylsulfonyl)-4-(3-oxo-6-((1-(tetrahydro-2H-pyran-4-yl)azetidin-3-yl)buta-1,3-diyn-1-yl)-1H-pyrrolo[1,2-c]imidazol-2(3H)-yl)butanamide]: 1 µg/mL (≈ 1.99 µM), 0.25 µg/mL (≈ 0.497 µM) and 0.25 µg/mL (≈ 0.497 µM).
Taken in the same sequence, the figures for `C[C@@](CCN1Cc2cc(C#CC#CC3CN(C4CSC4)C3)cn2C1=O)(C(=O)NO)S(C)(=O)=O` [Example 75, (2R)—N-hydroxy-2-methyl-2-(methylsulfonyl)-4-(3-oxo-6-((1-(thietan-3-yl)azetidin-3-yl)buta-1,3-diyn-1-yl)-1H-pyrrolo[1,2-c]imidazol-2(3H)-yl)butanamide] were 2 µg/mL (≈ 4.08 µM), 0.125 µg/mL (≈ 0.255 µM) and 0.063 µg/mL (≈ 0.128 µM).
Turning to `CCC1(C#CC#Cc2cc3n(c2)C(=O)N(CC[C@](C)(C(=O)NO)S(C)(=O)=O)C3)CN(C)C1` [Example 79, (2R)-4-(6-((3-ethyl-1-methylazetidin-3-yl)buta-1,3-diyn-1-yl)-3-oxo-1H-pyrrolo[1,2-c]imidazol-2(3H)-yl)-N-hydroxy-2-methyl-2-(methylsulfonyl)butanamide], the minimal inhibitory concentration (MIC) turned out to be 4 µg/mL (≈ 8.69 µM) in the test on P. aeruginosa ATCC27853, 2 µg/mL (≈ 4.34 µM) in the test on K. pneumoniae A-651 and 2 µg/mL (≈ 4.34 µM) in the test with E. coli ATCC25922.
Turning to `[2H]C([2H])S(=O)(=O)[C@](C)(CCN1Cc2cc(C#CC#CC3CN(C)C3)cn2C1=O)C(=O)NO` [Example 80, (2R)—N-hydroxy-2-methyl-2-((methyl-d2)sulfonyl)-4-(6-((1-methylazetidin-3-yl)buta-1,3-diyn-1-yl)-3-oxo-1H-pyrrolo[1,2-c]imidazol-2(3H)-yl)butanamide], the MIC against P. aeruginosa ATCC27853, with K. pneumoniae A-651 and with E. coli ATCC25922 was 0.5 µg/mL (≈ 1.15 µM) in each case.
As for `[2H]C([2H])([2H])S(=O)(=O)[C@](C)(CCN1Cc2cc(C#CC#CC3CN(CCO)C3)cn2C1=O)C(=O)NO` [Example 81, (2R)—N-hydroxy-4-(6-((1-(2-hydroxyethyl)azetidin-3-yl)buta-1,3-diyn-1-yl)-3-oxo-1H-pyrrolo[1,2-c]imidazol-2(3H)-yl)-2-methyl-2-((methyl-d3)sulfonyl)butanamide], the figures for the minimum inhibitory concentration (MIC) with P. aeruginosa ATCC27853, with K. pneumoniae A-651 and with E. coli ATCC25922 were 1 µg/mL (≈ 2.15 µM), 2 µg/mL (≈ 4.3 µM) and 1 µg/mL (≈ 2.15 µM), respectively.
With `CN1CC(C#Cc2ccc(-c3cc4n(c3)C(=O)N(CC[C@](C)(C(=O)NO)S(C)(=O)=O)C4)c(F)c2)C1` [Example 84, (2R)-4-(6-(2-fluoro-4-((1-methylazetidin-3-yl)ethynyl)phenyl)-3-oxo-1H-pyrrolo[1,2-c]imidazol-2(3H)-yl)-N-hydroxy-2-methyl-2-(methylsulfonyl)butanamide], the MIC worked out at 2 µg/mL (≈ 3.98 µM) against P. aeruginosa ATCC27853, 1 µg/mL (≈ 1.99 µM) against K. pneumoniae A-651 and 0.5 µg/mL (≈ 0.995 µM) against E. coli ATCC25922.
The matching figures for `CN1CC(C#Cc2ccc(-c3cc4n(c3)C(=O)N(CC[C@](C)(C(=O)NO)S(C)(=O)=O)C4)cc2)C1` [Example 85, (2R)—N-hydroxy-2-methyl-4-(6-(4-((1-methylazetidin-3-yl)ethynyl)phenyl)-3-oxo-1H-pyrrolo[1,2-c]imidazol-2(3H)-yl)-2-(methylsulfonyl)butanamide]: 1 µg/mL (≈ 2.06 µM), 1 µg/mL (≈ 2.06 µM) and 0.5 µg/mL (≈ 1.03 µM).
Taken in the same sequence, the figures for `CN1CCC(C#Cc2ccc(-c3cc4n(c3)C(=O)N(CC[C@](C)(C(=O)NO)S(C)(=O)=O)C4)c(F)c2)CC1` [Example 87, (2R)-4-(6-(2-fluoro-4-((1-methylpiperidin-4-yl)ethynyl)phenyl)-3-oxo-1H-pyrrolo[1,2-c]imidazol-2(3H)-yl)-N-hydroxy-2-methyl-2-(methylsulfonyl)butanamide] were 8 µg/mL (≈ 15.1 µM), more than 8 µg/mL and 4 µg/mL (≈ 7.54 µM).
With `C[C@@](CCN1Cc2cc(-c3ccc(C#CC4CN(CCO)C4)cc3F)cn2C1=O)(C(=O)NO)S(C)(=O)=O` [Example 88, (2R)-4-(6-(2-fluoro-4-((1-(2-hydroxyethyl)azetidin-3-yl)ethynyl)phenyl)-3-oxo-1H-pyrrolo[1,2-c]imidazol-2(3H)-yl)-N-hydroxy-2-methyl-2-(methylsulfonyl)butanamide], the MIC against P. aeruginosa ATCC27853 turned out to be 2 µg/mL (≈ 3.76 µM); against K. pneumoniae A-651, 2 µg/mL (≈ 3.76 µM); in the test on E. coli ATCC25922, 0.5 µg/mL (≈ 0.939 µM).
